Measured values from PubChem BioAssay AID1259246 (Broad Institute, 2017).
“And” between values parts separate entries of the source, which are not always exact repeats. Equal values may be shown once. Records with an inconclusive call do not appear. The source made the active and inactive calls.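 How the source made its calls: active means valid dose-response fit whose half-maximal growth-inhibiting concentration is at or below a set limit above the top tested dose; inconclusive means flat fit with effect between 30 and 70%, or poor fit; inactive means half-maximal concentration above a set limit.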

Assays:
[1] = system: Clostridioides difficile clinical isolate growth, OD600, 24 h; assay: antibacterial activity against Clostridioides difficile – 10-point retest, dose response (AID 1259246)
[2] = as above; settings: Clostridioides difficile clinical isolate growth, OD600, 24 h

Row | SMILES | IC50 [1] | further results
1 | O=C(NCC[C@@H]1CC[C@H](NC(=O)C2CC2)[C@H](CO)O1)Nc1ccc(C(F)(F)F)cc1 | 15 µM | activity change, negative = inhibition ([2]; at 120 µM (top of the series)): -0.062% (inactive)
2 | CC(C)Cc1ccc(CN2CC[C@@H](NS(=O)(=O)c3ccccc3)C2)cc1 | 56 µM | activity change, negative = inhibition ([2]; at 60 µM (top of the series)): 4.46% (inactive)
3 | O=C(NCC[C@@H]1CC[C@H](NC(=O)C2CC2)[C@@H](CO)O1)Nc1ccc(C(F)(F)F)cc1 | 8.56 µM | activity change, negative = inhibition ([2]; at 120 µM (top of the series)): 2.87% (inactive)
4 | O=C(NCC[C@@H]1CC[C@@H](NC(=O)C2CC2)[C@@H](CO)O1)Nc1ccc(C(F)(F)F)cc1 | 6.63 µM | activity change, negative = inhibition ([2]; at 120 µM (top of the series)): 2.33% (inactive)
5 | COc1cccc(C#Cc2ccc([C@H]3[C@@H](CO)N(C(=O)C4CCCCC4)[C@H]3C#N)cc2)c1 | 77.8 µM | activity change, negative = inhibition ([2]; at 75 µM (top of the series)): 12.9% (inactive)
6 | O=C(NCC[C@H]1CC[C@H](NC(=O)C2CC2)[C@H](CO)O1)Nc1ccc(C(F)(F)F)cc1 | 28.4 µM | activity change, negative = inhibition ([2]; at 120 µM (top of the series)): -1.84% (inactive)
7 | CO[C@H]1CN(C)C(=O)c2ccc(NC(=O)Nc3cc(Cl)cc(Cl)c3)cc2OC[C@@H](C)NC[C@H]1C | 11.6 µM | activity change, negative = inhibition ([2]; at 120 µM (top of the series)): 23.1% (inactive)
8 | COc1ccc(S(=O)(=O)Nc2cccc3c2O[C@H](CN(C)Cc2ccc(Oc4ccccc4)cc2)[C@H](C)CN([C@@H](C)CO)C3=O)cc1 | 9.4 µM | –
9 | CO[C@H]1CN(C)C(=O)c2ccc(NC(=O)Nc3cc(Cl)cc(Cl)c3)cc2OC[C@@H](C)NC[C@@H]1C | 34.1 µM | activity change, negative = inhibition ([2]; at 30 µM (top of the series)): 32.6% (inactive)
10 | Cc1ccc(F)cc1S(=O)(=O)N[C@@H]1CCN(Cc2ccc(CC(C)C)cc2)C1 | 14.3 µM | –
11 | C[C@@H]1CCCCO[C@H](CN(C)CC2CCCCC2)[C@H](C)CN([C@H](C)CO)C(=O)c2cc(NC(=O)Nc3ccc(C(F)(F)F)cc3)ccc2O1 | 5.06 µM and 44.8 µM and 31.8 µM | –
12 | COc1ccc(NC(=O)Nc2cccc3c2O[C@H](CN(C)Cc2ccc(Oc4ccccc4)cc2)[C@H](C)CN([C@@H](C)CO)C3=O)cc1 | 2.47 µM and 0.531 µM and 0.465 µM | –
13 | CO[C@H](CN(C)S(=O)(=O)c1cn(C)cn1)[C@@H](C)CN(C(=O)Nc1ccc(C(F)(F)F)cc1)[C@H](C)CO | 12.6 µM | –
14 | CC(C)CC#Cc1ccc2c(c1)O[C@H](CN(C)Cc1ccc(C(=O)O)cc1)[C@@H](C)CN([C@H](C)CO)S2(=O)=O | 42.9 µM | –
15 | O=C(C[C@H]1CC[C@@H]2[C@H](COC[C@@H](O)CN2S(=O)(=O)c2ccccc2)O1)NCC1CCCCC1 | 52.4 µM | –
16 | CO[C@H]1CN(C)C(=O)c2cc(NC(=O)Nc3ccc(Cl)c(Cl)c3)ccc2OC[C@@H](C)NC[C@H]1C | 14.9 µM and 13.1 µM | –
17 | O=C(NCC[C@H]1CC[C@H](NC(=O)C2CC2)[C@@H](CO)O1)Nc1ccc(C(F)(F)F)cc1 | 15.4 µM | –
18 | C[C@@H]1CN([C@H](C)CO)C(=O)c2cc(NC(=O)Nc3cccc4ccccc34)ccc2O[C@@H](C)CCCCO[C@H]1CN(C)Cc1ccccc1 | 68.4 µM | –
19 | CO[C@@H]1CN(C)C(=O)c2ccc(NC(=O)Nc3cc(Cl)cc(Cl)c3)cc2OC[C@H](C)NC[C@H]1C | 153 µM and 36.2 µM | –
20 | C[C@H](CO)N1C[C@H](C)[C@@H](CN(C)Cc2ccc(Oc3ccccc3)cc2)Oc2ccc(NC(=O)CCCN(C)C)cc2CC1=O | 64.1 µM | –
21 | CO[C@@H]1CN(C)C(=O)c2cc(NC(=O)Nc3ccc(Cl)c(Cl)c3)ccc2OC[C@H](C)NC[C@@H]1C | 17.8 µM and 12.5 µM | –
22 | Cc1ccc(F)cc1S(=O)(=O)N[C@@H]1CCN(Cc2ccc(OC(C)C)cc2)C1 | 29.6 µM | activity change, negative = inhibition ([2]; at 120 µM (top of the series)): 21.4% (inactive)

Row | SMILES | IC50 [1] | further results
23 | C[C@@H]1CN([C@@H](C)CO)S(=O)(=O)c2ccc(/C=C/c3ccccc3)cc2O[C@H]1CN(C)Cc1ccc(C(=O)O)cc1 | 3.3 µM | –
24 | C[C@@H]1CN([C@@H](C)CO)C(=O)Cc2cc(NC(=O)CCCN(C)C)ccc2O[C@@H]1CN(C)Cc1ccc(-c2ccccc2)cc1 | 7.29 µM | activity change, negative = inhibition ([2]; at 110 µM (top of the series)): 88.3% (inactive)
25 | C[C@H]1CN([C@@H](C)CO)C(=O)c2cccc(NC(=O)Nc3ccc(C(F)(F)F)cc3)c2O[C@H]1CN(C)Cc1ccc(-c2ccccc2)cc1 | 116 µM | –
26 | C[C@@H]1CN([C@@H](C)CO)C(=O)Cc2cc(NC(=O)CCCN(C)C)ccc2O[C@H]1CN(C)Cc1ccc(-c2ccccc2)cc1 | 31.4 µM | –
27 | C[C@@H]1CN([C@H](C)CO)S(=O)(=O)c2ccc(C#CCC3CCCC3)cc2O[C@H]1CN(C)C | 69.3 µM | –
28 | O=C(NCC[C@H]1CC[C@@H](NC(=O)C2CC2)[C@@H](CO)O1)Nc1ccc(C(F)(F)F)cc1 | 8.52 µM | activity change, negative = inhibition ([2]; at 120 µM (top of the series)): 4.63% (inactive)
29 | C[C@@H]1CN([C@@H](C)CO)C(=O)c2cccc(NC(=O)Nc3ccc4c(c3)OCO4)c2O[C@@H]1CN(C)Cc1ccc(-c2ccccc2)cc1 | 3.03 µM | –
30 | C[C@H](CO)N1C[C@H](C)[C@@H](CN(C)Cc2ccc(C(=O)O)cc2)Oc2cc(/C=C/c3ccccc3)ccc2S1(=O)=O | > 120 µM (inactive) | –
31 | N#C[C@H]1[C@@H](c2ccc(C#Cc3ccccc3F)cc2)[C@@H](CO)N1C(=O)C1CCCCC1 | 157 µM | –
32 | CO[C@@H](CN(C)S(=O)(=O)c1cn(C)cn1)[C@@H](C)CN(C(=O)Nc1ccc(C(F)(F)F)cc1)[C@H](C)CO | 24.7 µM | –
33 | CO[C@H]1CN(C)C(=O)c2ccc(NC(=O)c3nc4ccccc4s3)cc2OC[C@@H](C)N(Cc2ccncc2)C[C@@H]1C | > 240 µM (inactive) | –
34 | C[C@@H]1CCCCO[C@@H](CN(C)CC2CCCCC2)[C@@H](C)CN([C@@H](C)CO)C(=O)c2cc(NC(=O)Nc3ccc(C(F)(F)F)cc3)ccc2O1 | 50.2 µM and 17.8 µM | –
35 | CO[C@H](CN(C)C(=O)C1CCOCC1)[C@H](C)CN(C(=O)Nc1ccc(C(F)(F)F)cc1)[C@@H](C)CO | 21.4 µM | –
36 | C[C@@H]1CN([C@@H](C)CO)C(=O)c2cc(NC(=O)Nc3ccc(C(F)(F)F)cc3)ccc2O[C@@H](C)CCCCO[C@H]1CN(C)CC1CCCCC1 | 10.9 µM and 2.15 µM | –
37 | CO[C@H]1CN(C)C(=O)c2cc(NC(=O)Nc3ccc(Cl)c(Cl)c3)ccc2OC[C@H](C)NC[C@H]1C | 15.7 µM and 26.5 µM | –
38 | C[C@H]1CN([C@@H](C)CO)C(=O)c2ccccc2-c2ccccc2CO[C@@H]1CN(C)Cc1ccccc1C(F)(F)F | 13.6 µM | –
39 | C[C@H](CO)N1C[C@H](C)[C@@H](CN(C)Cc2ccc(-c3ccccc3)cc2)Oc2ccc(NC(=O)CCCN(C)C)cc2CC1=O | 68.7 µM | –
40 | CNC[C@@H]1Oc2ccc(NC(=O)Nc3ccccc3)cc2CC(=O)N([C@@H](C)CO)C[C@H]1C | > 270 µM (inactive) | –
41 | C[C@@H]1CN([C@@H](C)CO)C(=O)c2cccc(NC(=O)Nc3ccc(F)cc3)c2O[C@@H]1CN(C)Cc1ccc(-c2ccccc2)cc1 | 4.56 µM and 1.71 µM and 1.93 µM | –
42 | C[C@H](O)C#Cc1ccc2c(c1)O[C@H](CN(C)C(=O)CN(C)C)[C@H](C)CN([C@H](C)CO)S2(=O)=O | > 240 µM (inactive) | –
43 | O=C(NCC[C@H]1CC[C@@H](NC(=O)C2CC2)[C@H](CO)O1)Nc1ccc(C(F)(F)F)cc1 | 13.5 µM | activity change, negative = inhibition ([2]; at 120 µM (top of the series)): -4.12% (inactive)
44 | CO[C@@H]1CN(C)C(=O)c2ccc(NC(=O)Nc3cc(Cl)cc(Cl)c3)cc2OC[C@H](C)NC[C@@H]1C | 74.6 µM | activity change, negative = inhibition ([2]; at 120 µM (top of the series)): 4.74% (inactive)
